Experimental findings from patent US9452980B2, “Substituted benzamides” (Hoffmann-La Roche Inc., priority 2009, dated 2016) are described below.

By Ki is commonly meant the dissociation constant of the complex between target and ligand, obtained from inhibition or displacement.

Counter-ions that a name gives are not always drawn. Like-named read-outs stand apart in the source and are kept apart here.

Test [1] deals with mouse TAAR1 (Mus musculus (Mouse), UniProt Q923Y8). As to the kind of experiment: Radioligand binding assay on mouse TAAR1. To be noted: read-out: Ki (μM) mouse. In outline: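 Membranes were from HEK293 cells stably expressing mouse TAAR1. Compounds from 10 pM to 10 μM, in duplicate, competed with [3H]-(S)-4-[(ethyl-phenyl-amino)-methyl]-4,5-dihydro-oxazol-2-ylamine for 1 h at 4 °C. Nonspecific binding was defined with 10 μM unlabelled ligand, and bound radioactivity was read by filtration and scintillation.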

Test [2] deals with rat TAAR1 (Rattus norvegicus (Rat), UniProt Q923Y9). Description: Radioligand binding assay on rat TAAR1. To be noted: read-out: Ki (μM) rat. In outline:
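Membranes from HEK293 cells stably expressing rat TAAR1, with Kd checked per batch by saturation. Competition with ³H-(S)-4-[(ethyl-phenyl-amino)-methyl]-4,5-dihydro-oxazol-2-ylamine, compounds 10 pM–10 μM in duplicate, 1 hr at 4 °C. Filtration then scintillation counting; nonspecific binding defined with 10 μM unlabeled ligand.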

Setting [3] is: mouse TAAR1, HEK-293 membranes, first value of cell mouse/rat.
The mark [4] stands for this setting: rat TAAR1, HEK-293 membranes, second value of cell mouse/rat.

Sequence of mouse TAAR1 (Q923Y8 whole entry): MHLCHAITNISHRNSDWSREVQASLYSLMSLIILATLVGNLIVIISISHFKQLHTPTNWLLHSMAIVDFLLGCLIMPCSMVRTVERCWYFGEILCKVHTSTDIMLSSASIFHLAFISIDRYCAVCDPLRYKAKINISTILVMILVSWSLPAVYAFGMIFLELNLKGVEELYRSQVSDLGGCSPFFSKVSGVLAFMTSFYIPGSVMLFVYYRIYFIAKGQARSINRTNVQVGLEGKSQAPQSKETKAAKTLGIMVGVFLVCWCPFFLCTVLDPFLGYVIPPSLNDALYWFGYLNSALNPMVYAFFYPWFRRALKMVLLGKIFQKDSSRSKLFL
Sequence of rat TAAR1 (Q923Y9 whole entry): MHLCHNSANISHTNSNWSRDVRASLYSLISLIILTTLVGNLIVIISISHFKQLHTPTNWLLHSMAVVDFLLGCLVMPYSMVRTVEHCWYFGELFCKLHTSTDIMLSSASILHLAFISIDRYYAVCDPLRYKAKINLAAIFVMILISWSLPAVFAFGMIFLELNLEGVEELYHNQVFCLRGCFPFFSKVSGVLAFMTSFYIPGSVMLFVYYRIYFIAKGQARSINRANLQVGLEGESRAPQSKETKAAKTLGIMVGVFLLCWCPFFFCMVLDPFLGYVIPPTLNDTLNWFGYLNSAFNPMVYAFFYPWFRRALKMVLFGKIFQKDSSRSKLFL

Regarding `O=C(Nc1ccc(C2CNCCO2)cc1)c1ccc(Oc2ccc(C(=O)O)c(Cl)c2)cc1` (racemic) [Example 215, (RS)-2-Chloro-4-(4-(4-(morpholin-2-yl)phenylcarbamoyl)phenoxy)benzoic acid hydrochloride], the Ki in test [1] (setting [3]) came to 2.82 µM; in test [2] (setting [4]), 2.31 µM.

In the case of `Cc1cc(C(=O)Nc2ccc([C@@H]3CCCNC3)cc2)cc(Cl)n1` [Example 282, (S)-2-Chloro-6-methyl-N-(4-(piperidin-3-yl)phenyl)isonicotinamide], the inhibition constant Ki in test [1] amounted to 0.243 µM; in test [2] (setting [4]), 0.0048 µM.

Regarding `CCCc1cnc(C(=O)Nc2ccc([C@@H]3CCCNC3)cc2)cn1` [Example 278, (S)—N-(4-(Piperidin-3-yl)phenyl)-5-propylpyrazine-2-carboxamide hydrochloride], the inhibitory constant (Ki) in test [1] was found to be 0.829 µM; in test [2] (setting [4]) it was 0.0118 µM.

For the compound `COc1ccc(C(=O)Nc2ccc([C@H]3CCCNC3)cc2)cc1Cl` [Example 202, (R)-3-Chloro-4-methoxy-N-(4-(piperidin-3-yl)phenyl)benzamide hydrochloride], the Ki came to 0.0087 µM in test [1] and 0.0015 µM in test [2].

In the case of `O=C(Nc1ccc([C@@H]2CCCNC2)cc1)c1ccc(OCC(F)(F)F)nc1` [Example 224, (S)—N-(4-(Piperidin-3-yl)phenyl)-6-(2,2,2-trifluoroethoxy)nicotinamide hydrochloride], the Ki in test [1] (setting [3]) turned out to be 0.051 µM; in test [2], 0.0029 µM.

`O=C(Nc1ccc(C2CCNC2)cc1)Nc1ccc(Cl)nc1` (racemic) [Example 26, (RS)-1-(6-Chloro-pyridin-3-yl)-3-(4-pyrrolidin-3-yl-phenyl)-urea hydrochloride]: the inhibition constant Ki came out at 0.0112 µM in test [1] (setting [3]) and 0.0279 µM in test [2] (setting [4]).

As to `O=C(Nc1ccc(C2CCN(Cc3ccccc3)C2)cc1)c1ccc(Cl)cc1` (racemic) [Example 34, (RS)—N-[4-(1-Benzyl-pyrrolidin-3-yl)-phenyl]-4-chloro-benzamide], the inhibitory constant (Ki) amounted to 0.0269 µM in test [1] (setting [3]) and 0.214 µM in test [2] (setting [4]).

For the compound `CSc1cccc(C(=O)Nc2ccc([C@@H]3CCCNC3)cc2)c1` [Example 259, (S)-3-(Methylthio)-N-(4-(piperidin-3-yl)phenyl)benzamide], the Ki in test [1] (setting [3]) is 0.044 µM; in test [2] it was 0.0009 µM.

On to `O=C(Nc1ccc(C2CCNC2)cc1)c1ccc(C(F)(F)F)cn1` (racemic) [Example 139, (RS)-5-Trifluoromethyl-pyridine-2-carboxylic acid (4-pyrrolidin-3-yl-phenyl)-amide hydrochloride], for which the values for the inhibitory constant (Ki) in test [1] (setting [3]) and in test [2] (setting [4]) were 0.0158 µM and 0.0051 µM, respectively.

In the case of `Cc1ccc(C(=O)Nc2ccc(C3CCNC3)cc2)cc1` (racemic) [Example 182, (RS)-4-Methyl-N-(4-(pyrrolidin-3-yl)phenyl)benzamide hydrochloride], the Ki turned out to be 0.0253 µM in test [1] and 0.0025 µM in test [2] (setting [4]).

In the case of `O=C(Nc1ccc([C@@H]2CNCCO2)cc1)c1ccc(Cl)cc1` [Example 143, 4-Chloro-N—((R)-4-morpholin-2-yl-phenyl)-benzamide hydrochloride], the figures for the inhibitory constant (Ki) in test [1] and in test [2] were 0.0054 µM and 0.0006 µM, respectively.

With `Cc1cccc(NC(=O)Nc2ccc(C3CNCCO3)cc2)c1` (racemic) [Example 304, (RS)-1-(4-(Morpholin-2-yl)phenyl)-3-m-tolylurea hydrochloride], the results for the inhibition constant Ki in test [1] (setting [3]) and in test [2] (setting [4]) were 0.0071 µM and 0.0012 µM, respectively.

Consider `O=C(Nc1ccc(Cl)cc1)Nc1ccc(CCC2CCCNC2)cc1` (racemic) [Example 119, (RS)-1-(4-Chloro-phenyl)-3-[4-(2-piperidin-3-yl-ethyl)-phenyl]-urea hydrochloride], for which the Ki in test [1] (setting [3]) was 0.0365 µM; in test [2] (setting [4]), 0.0018 µM.

For the compound `O=C(Nc1ccc(CCC2CCCNC2)cc1)c1ccc(Cl)cn1` (racemic) [Example 118, (RS)-5-Chloro-pyridine-2-carboxylic acid [4-(2-piperidin-3-yl-ethyl)-phenyl]-amide hydrochloride], the figures for the Ki in test [1] (setting [3]) and in test [2] (setting [4]) were 0.13 µM and 0.0081 µM, respectively.

In the case of `O=C(Nc1ccc([C@@H]2CCCNC2)cc1)c1cnc(OCC(F)(F)F)cn1` [Example 250, (S)—N-(4-(Piperidin-3-yl)phenyl)-5-(2,2,2-trifluoroethoxy)pyrazine-2-carboxamide hydrochloride], the values for the Ki in test [1] (setting [3]) and in test [2] (setting [4]) were 0.288 µM and 0.0056 µM, respectively.

For `CCOc1ccc(C(=O)Nc2ccc([C@@H]3CCCNC3)cc2)cn1` [Example 256, (S)-6-Ethoxy-N-(4-(piperidin-3-yl)phenyl)nicotinamide], the inhibitory constant (Ki) in test [1] (setting [3]) was 1.17 µM; in test [2] (setting [4]), 0.012 µM.

Turning to `O=C(Nc1ccc([C@@H]2CCCNC2)cc1)c1cnc(C(F)(F)F)cn1` [Example 248, (S)—N-(4-(Piperidin-3-yl)phenyl)-5-(trifluoromethyl)pyrazine-2-carboxamide hydrochloride], the inhibition constant (Ki) in test [1] was found to be 0.188 µM; in test [2] (setting [4]), 0.0143 µM.

Regarding `O=C(Nc1ccc(C2CNCCO2)cc1)Nc1ccccc1Cl` (racemic) [Example 305, (RS)-1-(2-Chlorophenyl)-3-(4-(morpholin-2-yl)phenyl)urea hydrochloride], the Ki in test [1] (setting [3]) was determined as 0.0266 µM; in test [2] it was 0.0038 µM.

For the compound `O=C(Nc1ccc(C2CNCCO2)cc1)c1ccc(Cl)nc1` (racemic) [Example 193, (RS)-6-chloro-N-(4-(morpholin-2-yl)phenyl)nicotinamide hydrochloride], the inhibition constant (Ki) in test [1] (setting [3]) came out at 0.0406 µM; in test [2], 0.0034 µM.

For `O=C(NCc1ccc([C@@H]2CNCCO2)cc1)c1ccc(Cl)cc1` [Example 314, (R)-4-Chloro-N-(4-(morpholin-2-yl)benzyl)benzamide hydrochloride], the Ki came to 1.89 µM in test [1] (setting [3]) and 0.0062 µM in test [2] (setting [4]).

With `O=C(Nc1ccc(C2CCNC2)cc1)c1nccc2ccsc12` (racemic) [Example 93, (RS)-Thieno[2,3-c]pyridine-7-carboxylic acid (4-pyrrolidin-3-yl-phenyl)-amide hydrochloride], the Ki stood at 0.04 µM in test [1] (setting [3]) and 0.173 µM in test [2] (setting [4]).

`O=C(NCc1ccc([C@@H]2CNCCO2)cc1)c1ccc(C(F)(F)F)nc1` [Example 321, (R)—N-(4-(Morpholin-2-yl)benzyl)-6-(trifluoromethyl)nicotinamide hydrochloride]: the inhibitory constant (Ki) came out at 1.31 µM in test [1] and 0.026 µM in test [2].

Take `Cc1nc(-c2cnccn2)sc1C(=O)Nc1ccc(C2CNCCO2)cc1` (racemic) [Example 298, (RS)-4-Methyl-N-(4-(morpholin-2-yl)phenyl)-2-(pyrazin-2-yl)thiazole-5-carboxamide hydrochloride]: the inhibitory constant (Ki) in test [1] turned out to be 0.0506 µM; in test [2] (setting [4]) it was 0.0143 µM.

On to `O=C(Nc1ccc([C@H]2CCCNC2)cc1)c1ccc(Cl)nc1` [Example 161, (R)-6-Chloro-N-(4-(piperidin-3-yl)phenyl)nicotinamide hydrochloride], for which the inhibition constant (Ki) in test [1] was 0.0403 µM; in test [2] (setting [4]), 0.0101 µM.

Consider `O=C(Nc1ccc(C2CCNC2)cc1)Nc1cccc2cccnc12` (racemic) [Example 81, (RS)-1-(4-Pyrrolidin-3-yl-phenyl)-3-quinolin-8-yl-urea], for which the Ki stood at 0.0227 µM in test [1] (setting [3]) and 0.0124 µM in test [2] (setting [4]).

In the case of `Cc1cc(C(=O)Nc2ccc(C3CNCCO3)cc2)cc(C)n1` (racemic) [Example 295, (RS)-2,6-Dimethyl-N-(4-(morpholin-2-yl)phenyl)isonicotinamide dihydrochloride], the Ki worked out at 0.235 µM in test [1] (setting [3]) and 1.2 µM in test [2] (setting [4]).

As to `O=C(Nc1ccc(C2CCNC2)cc1)Nc1ccc(C(F)(F)F)cc1` (racemic) [Example 27, (RS)-1-(4-Pyrrolidin-3-yl-phenyl)-3-(4-trifluoromethyl-phenyl)-urea hydrochloride], the inhibition constant (Ki) amounted to 0.0013 µM in test [1] (setting [3]) and 0.0015 µM in test [2] (setting [4]).

Consider `O=C(Nc1ccc(C2CCCNC2)cc1)c1ccc(C(F)(F)F)cn1` (racemic) [Example 138, (RS)-5-Trifluoromethyl-pyridine-2-carboxylic acid (4-piperidin-3-yl-phenyl)-amide hydrochloride], for which the results for the Ki in test [1] (setting [3]) and in test [2] (setting [4]) were 0.035 µM and 0.0059 µM, respectively.

In the case of `O=C(Nc1ccc(C2CNCCO2)cc1)c1cnc(Cl)c(Cl)c1` (racemic) [Example 219, (RS)-5,6-Dichloro-N-(4-(morpholin-2-yl)phenyl)nicotinamide hydrochloride], the Ki in test [1] (setting [3]) turned out to be 0.0059 µM; in test [2] (setting [4]), 0.0031 µM.

`CO[C@H]1CC[C@H](C(=O)Nc2ccc(C3CNCCO3)cc2)CC1` (mixture of isomers) [Example 255, trans-(RS)-4-Methoxy-N-(4-(morpholin-2-yl)phenyl)cyclohexanecarboxamide hydrochloride]: the inhibitory constant (Ki) came to 5.1 µM in test [1] (setting [3]) and 0.428 µM in test [2] (setting [4]).

With `O=C(Nc1ccc([C@@H]2CCCNC2)cc1)c1cccc(C(F)(F)F)c1` [Example 234, (S)—N-(4-(Piperidin-3-yl)phenyl)-3-(trifluoromethyl)benzamide hydrochloride], the values for the inhibition constant Ki in test [1] and in test [2] were 0.0217 µM and 0.001 µM, respectively.

As for `O=C(Nc1ccc(C2CCNC2)cc1)c1ccc(Cl)cc1F` (racemic) [Example 77, (RS)-4-Chloro-2-fluoro-N-(4-pyrrolidin-3-yl-phenyl)-benzamide hydrochloride], the Ki in test [1] (setting [3]) is 0.0017 µM; in test [2] (setting [4]), 0.0238 µM.

`N#Cc1ccc(C(=O)Nc2ccc(C3CNCCO3)cc2)cn1` (racemic) [Example 194, (RS)-2-(4-(6-cyanonicotinamido)phenyl)morpholin-4-ium chloride]: the Ki in test [1] (setting [3]) worked out at 0.0982 µM; in test [2] (setting [4]), 0.005 µM.
